Laboratory results: ChEMBL document CHEMBL1240358, “Activity of a new antipseudomonal cephalosporin, CXA-101 (FR264205), against carbapenem-resistant and multidrug-resistant Pseudomonas aeruginosa clinical strains” (2010)
Converted amounts (≈) assume the structure as drawn.

Columns and labels:
Format in all cases: functional
Pseudomonas aeruginosa [1] = assay: Antibacterial activity against carbapenem-resistant Pseudomonas aeruginosa isolate 3C9 GM1 harboring acquired beta-lactamase OXA-144 by broth microdilution method
Pseudomonas aeruginosa [2] = assay: Antibacterial activity against cefepime-susceptible Pseudomonas aeruginosa by broth microdilution method
Pseudomonas aeruginosa [3] = assay: Antibacterial activity against meropenem-resistant Pseudomonas aeruginosa by broth microdilution method
Pseudomonas aeruginosa [4] = assay: Antibacterial activity against carbapenem-resistant Pseudomonas aeruginosa isolate 1B2 RCA2 harboring acquired beta-lactamase PER-1 by broth microdilution method
Pseudomonas aeruginosa [5] = assay: Antibacterial activity against ciprofloxacin -susceptible Pseudomonas aeruginosa by broth microdilution method
Pseudomonas aeruginosa [6] = assay: Antibacterial activity against piperacillin- and tazobactam-resistant Pseudomonas aeruginosa by broth microdilution method
Pseudomonas aeruginosa [7] = assay: Antibacterial activity against Pseudomonas aeruginosa harboring high level of beta lactamase AmpC by broth microdilution method
Pseudomonas aeruginosa [8] = assay: Antibacterial activity against ticarcillin-susceptible Pseudomonas aeruginosa by broth microdilution method
Pseudomonas aeruginosa [9] = assay: Antibacterial activity against ceftazidime-susceptible Pseudomonas aeruginosa by broth microdilution method
Pseudomonas aeruginosa [10] = assay: Antibacterial activity against gentamicin-resistant Pseudomonas aeruginosa by broth microdilution method
Pseudomonas aeruginosa [11] = assay: Antibacterial activity against gentamicin-susceptible Pseudomonas aeruginosa by broth microdilution method
Pseudomonas aeruginosa [12] = assay: Antibacterial activity against Pseudomonas aeruginosa by broth microdilution method
Pseudomonas aeruginosa [13] = assay: Antibacterial activity against piperacillin- and tazobactam-susceptible Pseudomonas aeruginosa by broth microdilution method
Pseudomonas aeruginosa [14] = assay: Antibacterial activity against tobramycin-susceptible Pseudomonas aeruginosa by broth microdilution method
Pseudomonas aeruginosa [15] = assay: Antibacterial activity against aztreonam-susceptible Pseudomonas aeruginosa by broth microdilution method
Pseudomonas aeruginosa [16] = assay: Antibacterial activity against amikacin-resistant Pseudomonas aeruginosa by broth microdilution method
Pseudomonas aeruginosa [17] = assay: Antibacterial activity against Pseudomonas aeruginosa PAO1 harboring acquired beta-lactamase OXA-144 by broth microdilution method
Pseudomonas aeruginosa [18] = assay: Antibacterial activity against carbapenem-resistant Pseudomonas aeruginosa isolate 1E1 PpA1 harboring acquired beta-lactamase OXA-144 by broth microdilution method
Pseudomonas aeruginosa [19] = assay: Antibacterial activity against Pseudomonas aeruginosa isolated from non-intensive care unit patient by broth microdilution method
Pseudomonas aeruginosa [20] = assay: Antibacterial activity against non-multidrug-resistant Pseudomonas aeruginosa by broth microdilution method
Pseudomonas aeruginosa [21] = assay: Antibacterial activity against ciprofloxacin-resistant Pseudomonas aeruginosa by broth microdilution method
Pseudomonas aeruginosa [22] = assay: Antibacterial activity against multidrug-resistant Pseudomonas aeruginosa by broth microdilution method
Pseudomonas aeruginosa [23] = assay: Antibacterial activity against Pseudomonas aeruginosa PAO1 harboring acquired beta-lactamase OXA-2 by broth microdilution method
Pseudomonas aeruginosa [24] = assay: Antibacterial activity against Pseudomonas aeruginosa isolated from intensive care unit patient by broth microdilution method
Pseudomonas aeruginosa [25] = assay: Antibacterial activity against cephalosporin-resistant Pseudomonas aeruginosa clinical isolates
Pseudomonas aeruginosa [26] = assay: Antibacterial activity against carbapenem-resistant Pseudomonas aeruginosa isolate 3D2 GM2 harboring acquired beta-lactamase BEL-3 by broth microdilution method
Pseudomonas aeruginosa [27] = assay: Antibacterial activity against piperacillin-susceptible Pseudomonas aeruginosa by broth microdilution method
Pseudomonas aeruginosa [28] = assay: Antibacterial activity against multidrug-resistant Pseudomonas aeruginosa isolated from patient with cystic fibrosis
Pseudomonas aeruginosa [29] = assay: Antibacterial activity against aztreonam-resistant Pseudomonas aeruginosa by broth microdilution method
Pseudomonas aeruginosa [30] = assay: Antibacterial activity against piperacillin-resistant Pseudomonas aeruginosa by broth microdilution method
Pseudomonas aeruginosa [31] = assay: Antibacterial activity against carbapenem-resistant Pseudomonas aeruginosa isolate 3C1 VAL6 by broth microdilution method
Pseudomonas aeruginosa [32] = assay: Antibacterial activity against tobramycin-resistant Pseudomonas aeruginosa by broth microdilution method
Pseudomonas aeruginosa [33] = assay: Antibacterial activity against Pseudomonas aeruginosa harboring low level of beta lactamase AmpC by broth microdilution method
Pseudomonas aeruginosa [34] = assay: Antibacterial activity against ticarcillin-resistant Pseudomonas aeruginosa by broth microdilution method
Pseudomonas aeruginosa [35] = assay: Antibacterial activity against carbapenem-resistant Pseudomonas aeruginosa isolate 1E3 PpA2 harboring acquired beta-lactamase OXA-101 by broth microdilution method
Pseudomonas aeruginosa [36] = assay: Antibacterial activity against carbapenem-resistant Pseudomonas aeruginosa isolate 3C8 GM1 harboring acquired beta-lactamase OXA-144 by broth microdilution method
Pseudomonas aeruginosa [37] = assay: Antibacterial activity against amikacin-susceptible Pseudomonas aeruginosa by broth microdilution method
Pseudomonas aeruginosa [38] = assay: Antibacterial activity against imipenem-susceptible Pseudomonas aeruginosa by broth microdilution method
Pseudomonas aeruginosa [39] = assay: Antibacterial activity against carbapenem-resistant Pseudomonas aeruginosa isolate 1C3 PTOL1 harboring acquired beta-lactamase OXA-17 by broth microdilution method
Pseudomonas aeruginosa [40] = assay: Antibacterial activity against carbapenem-resistant Pseudomonas aeruginosa isolate 1D5 SA1 harboring acquired beta-lactamase VIM-2 by broth microdilution method
Pseudomonas aeruginosa [41] = assay: Antibacterial activity against carbapenem-resistant Pseudomonas aeruginosa isolate 1C2 PTOL1 harboring beta-lactamase OXA-17 by broth microdilution method
Pseudomonas aeruginosa [42] = assay: Antibacterial activity against Pseudomonas aeruginosa PAO1 by broth microdilution method
Pseudomonas aeruginosa [43] = assay: Antibacterial activity against ceftazidime-resistant Pseudomonas aeruginosa by broth microdilution method
Pseudomonas aeruginosa [44] = assay: Antibacterial activity against carbapenem-resistant Pseudomonas aeruginosa isolate 1E2 PpA1 harboring acquired beta-lactamase OXA-144 by broth microdilution method
Pseudomonas aeruginosa [45] = assay: Antibacterial activity against meropenem-susceptible Pseudomonas aeruginosa by broth microdilution method
Pseudomonas aeruginosa [46] = assay: Antibacterial activity against cefepime-resistant Pseudomonas aeruginosa by broth microdilution method
Pseudomonas aeruginosa [47] = assay: Antibacterial activity against imipenem-resistant Pseudomonas aeruginosa by broth microdilution method

## Cn1c(N)c(NC(=O)NCCN)c[n+]1CC1=C(C(=O)O)N2C(=O)[C@@H](NC(=O)/C(=N\OC(C)(C)C(=O)[O-])c3nsc(N)n3)[C@H]2SC1 [CEFTOLOZANE]
Pseudomonas aeruginosa [1]
  MIC: 32 µg/mL (≈ 48 µM)
Pseudomonas aeruginosa [2]
  MIC50: 0.5 µg/mL (≈ 0.75 µM)
  MIC90: 2 µg/mL (≈ 3 µM)
Pseudomonas aeruginosa [3]
  MIC50: 1 µg/mL (≈ 1.5 µM)
  MIC90: 4 µg/mL (≈ 6 µM)
Pseudomonas aeruginosa [4]
  MIC: 64 µg/mL (≈ 96 µM)
Pseudomonas aeruginosa [5]
  MIC50: 1 µg/mL (≈ 1.5 µM)
  MIC90: 2 µg/mL (≈ 3 µM)
Pseudomonas aeruginosa [6]
  MIC50: 1 µg/mL
  MIC90: 4 µg/mL
Pseudomonas aeruginosa [7]
  MIC50: 1 µg/mL (≈ 1.5 µM)
  MIC90: 4 µg/mL (≈ 6 µM)
Pseudomonas aeruginosa [8]
  MIC50: 1 µg/mL (≈ 1.5 µM)
  MIC90: 2 µg/mL (≈ 3 µM)
Pseudomonas aeruginosa [9]
  MIC50: 1 µg/mL (≈ 1.5 µM)
  MIC90: 2 µg/mL (≈ 3 µM)
Pseudomonas aeruginosa [10]
  MIC50: 1 µg/mL (≈ 1.5 µM)
  MIC90: 4 µg/mL (≈ 6 µM)
Pseudomonas aeruginosa [11]
  MIC50: 1 µg/mL (≈ 1.5 µM)
  MIC90: 2 µg/mL (≈ 3 µM)
Pseudomonas aeruginosa [12]
  MIC50: 1 µg/mL (≈ 1.5 µM)
  MIC90: 4 µg/mL (≈ 6 µM)
Pseudomonas aeruginosa [13]
  MIC50: 1 µg/mL
  MIC90: 2 µg/mL
Pseudomonas aeruginosa [14]
  MIC50: 1 µg/mL (≈ 1.5 µM)
  MIC90: 2 µg/mL (≈ 3 µM)
Pseudomonas aeruginosa [15]
  MIC50: 1 µg/mL (≈ 1.5 µM)
  MIC90: 2 µg/mL (≈ 3 µM)
Pseudomonas aeruginosa [16]
  MIC50: 1 µg/mL (≈ 1.5 µM)
  MIC90: 64 µg/mL (≈ 96 µM)
Pseudomonas aeruginosa [17]
  MIC: 32 µg/mL (≈ 48 µM)
Pseudomonas aeruginosa [18]
  MIC: 32 µg/mL (≈ 48 µM)
Pseudomonas aeruginosa [19]
  MIC50: 1 µg/mL (≈ 1.5 µM)
  MIC90: 2 µg/mL (≈ 3 µM)
Pseudomonas aeruginosa [20]
  MIC50: 1 µg/mL (≈ 1.5 µM)
  MIC90: 2 µg/mL (≈ 3 µM)
Pseudomonas aeruginosa [21]
  MIC50: 1 µg/mL (≈ 1.5 µM)
  MIC90: 4 µg/mL (≈ 6 µM)
Pseudomonas aeruginosa [22]
  MIC50: 1 µg/mL (≈ 1.5 µM)
  MIC90: 4 µg/mL (≈ 6 µM)
Pseudomonas aeruginosa [23]
  MIC: 0.5 µg/mL (≈ 0.75 µM)
Pseudomonas aeruginosa [24]
  MIC50: 1 µg/mL (≈ 1.5 µM)
  MIC90: 4 µg/mL (≈ 6 µM)
Pseudomonas aeruginosa [25]
  MIC50: 0.51 µg/mL (≈ 0.765 µM)
  MIC90: 1 µg/mL (≈ 1.5 µM)
Pseudomonas aeruginosa [26]
  MIC: 32 µg/mL (≈ 48 µM)
Pseudomonas aeruginosa [27]
  MIC50: 1 µg/mL (≈ 1.5 µM)
  MIC90: 2 µg/mL (≈ 3 µM)
Pseudomonas aeruginosa [28]
  MIC: > 8 µg/mL
Pseudomonas aeruginosa [29]
  MIC50: 1 µg/mL (≈ 1.5 µM)
  MIC90: 4 µg/mL (≈ 6 µM)
Pseudomonas aeruginosa [30]
  MIC50: 1 µg/mL (≈ 1.5 µM)
  MIC90: 8 µg/mL (≈ 12 µM)
Pseudomonas aeruginosa [31]
  MIC: 64 µg/mL (≈ 96 µM)
Pseudomonas aeruginosa [32]
  MIC50: 1 µg/mL (≈ 1.5 µM)
  MIC90: 4 µg/mL (≈ 6 µM)
Pseudomonas aeruginosa [33]
  MIC50: 1 µg/mL (≈ 1.5 µM)
  MIC90: 2 µg/mL (≈ 3 µM)
Pseudomonas aeruginosa [34]
  MIC50: 1 µg/mL (≈ 1.5 µM)
  MIC90: 8 µg/mL (≈ 12 µM)
Pseudomonas aeruginosa [35]
  MIC: 32 µg/mL (≈ 48 µM)
Pseudomonas aeruginosa [36]
  MIC: 32 µg/mL (≈ 48 µM)
Pseudomonas aeruginosa [37]
  MIC50: 1 µg/mL (≈ 1.5 µM)
  MIC90: 2 µg/mL (≈ 3 µM)
Pseudomonas aeruginosa [38]
  MIC50: 1 µg/mL (≈ 1.5 µM)
  MIC90: 4 µg/mL (≈ 6 µM)
Pseudomonas aeruginosa [39]
  MIC: 64 µg/mL (≈ 96 µM)
Pseudomonas aeruginosa [40]
  MIC: 64 µg/mL (≈ 96 µM)
Pseudomonas aeruginosa [41]
  MIC: 64 µg/mL (≈ 96 µM)
Pseudomonas aeruginosa [42]
  MIC: 0.25 µg/mL (≈ 0.375 µM)
Pseudomonas aeruginosa [43]
  MIC50: 1 µg/mL (≈ 1.5 µM)
  MIC90: 4 µg/mL (≈ 6 µM)
Pseudomonas aeruginosa [44]
  MIC: 64 µg/mL (≈ 96 µM)
Pseudomonas aeruginosa [45]
  MIC50: 1 µg/mL (≈ 1.5 µM)
  MIC90: 2 µg/mL (≈ 3 µM)
Pseudomonas aeruginosa [46]
  MIC50: 1 µg/mL (≈ 1.5 µM)
  MIC90: 4 µg/mL (≈ 6 µM)
Pseudomonas aeruginosa [47]
  MIC50: 1 µg/mL (≈ 1.5 µM)
  MIC90: 4 µg/mL (≈ 6 µM)
